In US10538495B2, “Modulators of indoleamine 2,3-dioxygenase” (GLAXOSMITHKLINE INTELLECTUAL PROPERTY DEVELOPMENT LIMITED, priority 2016, dated 2020):
Structures can show the parent of a compound that is named as a salt.

Biological target: indoleamine 2,3-dioxygenase (IDO1) (Homo sapiens, UniProt P14902)
Test: HeLa IDOi assay (kynurenine by mass spectrometry)
Format: cell-based
Set-up: human epithelial HeLa cells (CCL-2; host or cells: HeLa cells stimulated with human IFN-γ
Details: IFN-γ stimulated HeLa cells, 2 days, kynurenine detected by mass spectrometry; read-out: HeLa pIC50 (converted)
Description: Brief descriptions of the cellular assays are provided following the table.
Compounds of the present invention were tested via high-throughput cellular assays utilizing detection of kynurenine via mass spectrometry and cytotoxicity as end-points. For the mass spectrometry and cytotoxicity assays, human epithelial HeLa cells (CCL-2; ATCC®, Manassas, Va.) were stimulated with human interferon-γ (IFN-γ) (Sigma-Aldrich Corporation, St. Louis, Mo.) to induce the expression of indoleamine 2,3-dioxygenase (IDO1). Compounds with IDO1 inhibitory properties decreased the amount of kynurenine produced by the cells via the tryptophan catabolic pathway. Cellular toxicity due to the effect of compound treatment was measured using CellTiter-Glo® reagent (CTG) (Promega Corporation, Madison, Wis.), which is based on luminescent detection of ATP, an indicator of metabolically active cells.
In preparation for the assays, test compounds were serially diluted 3-fold in DMSO from a typical top concentration of 5 mM and plated at 0.5 μL in 384-well, polystyrene, clear bottom, tissue culture treated plates with lids (Greiner Bio-One, Kremsmünster, Austria) to generate 11-point dose response curves. Low control wells (0% kynurenine or 100% cytotoxicity) contained either 0.5 μL of DMSO in the presence of unstimulated (−IFN-γ) HeLa cells for the mass spectrometry assay or 0.5 μL of DMSO in the absence of cells for the cytotoxicity assay, and high control wells (100% kynurenine or 0% cytotoxicity) contained 0.5 μL of DMSO in the presence of stimulated (+IFN-γ) HeLa cells for both the mass spectrometry and cytotoxicity assays.
Frozen stocks of HeLa cells were washed and recovered in DMEM high glucose medium with HEPES (Thermo Fisher Scientific, Inc., Waltham, Mass.) supplemented with 10% v/v certified fetal bovine serum (FBS) (Thermo Fisher Scientific, Inc., Waltham, Mass.), and 1× penicillin-streptomycin antibiotic solution (Thermo Fisher Scientific, Inc., Waltham, Mass.). The cells were diluted to 100,000 cells/mL in the supplemented DMEM medium. 50 μL of either the cell suspension, for the mass spectrometry assay, or medium alone, for the cytotoxicity assay, were added to the low control wells, on the previously prepared 384-well compound plates, resulting in 5,000 cells/well or 0 cells/well respectively. IFN-γ was added to the remaining cell suspension at a final concentration of 10 nM, and 50 μL of the stimulated cells were added to all remaining wells on the 384-well compound plates. The plates, with lids, were then placed in a 37° C., 5% CO2 humidified incubator for 2 days.
Following incubation, the 384-well plates were removed from the incubator and allowed to equilibrate to room temperature for 30 minutes. For the cytotoxicity assay, CellTiter-Glo® was prepared according to the manufacturer's instructions, and 10 μL were added to each plate well. After a twenty minute incubation at room temperature, luminescence was read on an EnVision® Multilabel Reader (PerkinElmer Inc., Waltham, Mass.). For the mass spectrometry assay, 10 μL of supernatant from each well of the compound-treated plates were added to 40 μL of acetonitrile, containing 10 μM of an internal standard for normalization, in 384-well, polypropylene, V-bottom plates (Greiner Bio-One, Kremsmünster, Austria) to extract the organic analytes. Following centrifugation at 2000 rpm for 10 minutes, 10 μL from each well of the acetonitrile extraction plates were added to 90 μL of sterile, distilled H2O in 384-well, polypropylene, V-bottom plates for analysis of kynurenine and the internal standard on the RapidFire 300 (Agilent Technologies, Santa Clara, Calif.) and 4000 QTRAP MS (SCIEX, Framingham, Mass.). MS data were integrated using Agilent Technologies' RapidFire Integrator software, and data were normalized for analysis as a ratio of kynurenine to the internal standard. […]

indoleamine 2,3-dioxygenase (IDO1), sequence (P14902 whole entry): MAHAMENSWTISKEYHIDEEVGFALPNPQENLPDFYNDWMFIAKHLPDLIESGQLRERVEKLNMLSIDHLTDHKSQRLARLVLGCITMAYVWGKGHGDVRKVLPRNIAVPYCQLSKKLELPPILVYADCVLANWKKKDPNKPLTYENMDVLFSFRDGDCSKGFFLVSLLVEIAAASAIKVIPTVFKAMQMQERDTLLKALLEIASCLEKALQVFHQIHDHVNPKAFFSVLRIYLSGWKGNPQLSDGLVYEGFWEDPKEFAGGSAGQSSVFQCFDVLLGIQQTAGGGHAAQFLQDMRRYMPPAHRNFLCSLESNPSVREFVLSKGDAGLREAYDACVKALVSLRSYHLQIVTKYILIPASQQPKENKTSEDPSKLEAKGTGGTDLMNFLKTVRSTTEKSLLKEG

| SMILES | IC50 [nM] |
| --- | --- |
| CC(=O)OCn1nnnc1-c1ccccc1-c1ccc(SC(C)(C)C)c(NC(=O)Cc2ccc(C)cc2)c1 [Example 58, (5-(4′-(tert-butylthio)-3′-(2-(p-tolyl)acetamido)-[1,1′-biphenyl]-2-yl)-1H-tetrazol-1-yl)methyl Acetate] | 39.8 |
| CC(C)(C)Sc1ccc(-c2ccccc2-c2nn[nH]n2)cc1NC(=O)Cc1cncnc1 [Example 9, N-(4-(tert-butylthio)-2′-(2H-tetrazol-5-yl)-[1,1′-biphenyl]-3-yl)-2-(pyrimidin-5-yl)acetamide] | > 10000 |
| CC(=O)OCn1nnc(-c2ccccc2-c2ccc(SC(C)(C)C)c(NC(=O)Cc3ccc(C)cc3)c2)n1 [Example 57, (5-(4′-(tert-Butylthio)-3′-(2-(p-tolyl)acetamido)-[1,1′-biphenyl]-2-yl)-2H-tetrazol-2-yl)methyl Acetate] | 25.1 |
| COc1ccc(CC(=O)Nc2cc(-c3ccccc3-c3nn[nH]n3)ccc2SC(C)(C)C)cc1 [Example 22, N-(4-(tert-butylthio)-2′-(2H-tetrazol-5-yl)-[1,1′-biphenyl]-3-yl)-2-(4-methoxyphenyl)acetamide] | 31.6 |
| COCCCSc1ccc(-c2ccccc2-c2nn[nH]n2)cc1NC(=O)Cc1ccc(C)cc1 [Example 11, N-(4-((3-methoxypropyl)thio)-2′-(2H-tetrazol-5-yl)-[1,1′-biphenyl]-3-yl)-2-(p-tolyl)acetamide] | 1000 |
| COc1ccc(CC(=O)Nc2cc(-c3ccccc3-c3nn[nH]n3)ccc2SC(C)(C)C)cc1F [Example 23, N-(4-(tert-butylthio)-2′-(2H-tetrazol-5-yl)-[1,1′-biphenyl]-3-yl)-2-(3-fluoro-4-methoxyphenyl)acetamide] | 63.1 |
| Cc1ccc(CC(=O)Nc2cc(-c3ccccc3-c3nnnn3C)ccc2SC(C)(C)C)cc1 [Example 62, N-(4-(tert-butylthio)-2′-(1-methyl-1H-tetrazol-5-yl)-[1,1′-biphenyl]-3-yl)-2-(p-tolyl)acetamide] | 501 |
| CC(C)(C)Sc1ccc(-c2ccccc2-c2nn[nH]n2)cc1NC(=O)CC1CC1 [Example 17, N-(4-(tert-butylthio)-2′-(2H-tetrazol-5-yl)-[1,1′-biphenyl]-3-yl)-2-cyclopropylacetamide] | 2510 |
| Cc1cc(CC(=O)Nc2cc(-c3ccccc3-c3nn[nH]n3)ccc2SC(C)(C)C)on1 [Example 8, N-(4-(tert-butylthio)-2′-(2H-tetrazol-5-yl)-[1,1′-biphenyl]-3-yl)-2-(3-methylisoxazol-5-yl)acetamide] | 6310 |
| CC(C)(C)Sc1ccc(-c2ccccc2-c2nn[nH]n2)cc1Nc1nc(Cl)ns1 [Example 42, N-(4-(tert-butylthio)-2′-(2H-tetrazol-5-yl)-[1,1′-biphenyl]-3-yl)-3-chloro-1,2,4-thiadiazol-5-amine] | 126 |
| CC(C)(C)Sc1ccc(-c2ccccc2-c2nn[nH]n2)cc1NC(=O)CC1CCCCC1 [Example 18, N-(4-(tert-butylthio)-2′-(2H-tetrazol-5-yl)-[1,1′-biphenyl]-3-yl)-2-cyclohexylacetamide] | 3980 |
| Cc1ccc(CC(=O)Nc2cc(-c3ccccc3-c3nnn(COP(=O)(OC(C)(C)C)OC(C)(C)C)n3)ccc2SC(C)(C)C)cc1 [Example 49, di-tert-butyl ((5-(4′-(tert-butylthio)-3′-(2-(p-tolyl)acetamido)-[1,1′-biphenyl]-2-yl)-2H-tetrazol-2-yl)methyl) phosphate] | 1000 |
| CC(C)(C)Sc1ccc(-c2ccccc2-c2nn[nH]n2)cc1NC(=O)Cc1cnccn1 [Example 5, N-(4-(tert-butylthio)-2′-(2H-tetrazol-5-yl)-[1,1′-biphenyl]-3-yl)-2-(pyrazin-2-yl)acetamide] | > 10000 |
| CC(C)(C)Sc1ccc(-c2ccccc2-c2nn[nH]n2)cc1NC(=O)Cc1ccc2c(c1)OCO2 [Example 38, 2-(Benzo[d][1,3]dioxol-5-yl)-N-(4-(tert-butylthio)-2′-(2H-tetrazol-5-yl)-[1,1′-biphenyl]-3-yl)acetamide] | 100 |
| CC(C)(C)Sc1ccc(-c2ccccc2-c2nn[nH]n2)cc1NC(=O)Cc1ccc(C#N)cc1 [Example 7, N-(4-(tert-butylthio)-2′-(2H-tetrazol-5-yl)-[1,1′-biphenyl]-3-yl)-2-(4-cyanophenyl)acetamide] | 5010 |
| Cc1ccc(CC(=O)Nc2cc(-c3ccccc3-c3nn[nH]n3)ccc2SC(C)(C)C)nc1 [Example 26, N-(4-(tert-butylthio)-2′-(2H-tetrazol-5-yl)-[1,1′-biphenyl]-3-yl)-2-(5-methylpyridin-2-yl)acetamide] | 794 |
| CC(C)(C)Sc1ccc(-c2ccccc2-c2nn[nH]n2)cc1NC(=O)Cc1ccccc1 [Example 25, N-(4-(tert-butylthio)-2′-(2H-tetrazol-5-yl)-[1,1′-biphenyl]-3-yl)-2-phenylacetamide] | 398 |
| COCC(=O)Nc1cc(-c2ccccc2-c2nn[nH]n2)ccc1SC(C)(C)C [Example 33, N-(4-(tert-butylthio)-2′-(2H-tetrazol-5-yl)-[1,1′-biphenyl]-3-yl)-2-methoxyacetamide] | 7940 |
| COCn1nnnc1-c1ccccc1-c1ccc(SC(C)(C)C)c(NC(=O)Cc2ccc(C)cc2)c1 [Example 60, N-(4-(tert-butylthio)-2′-(1-(methoxymethyl)-1H-tetrazol-5-yl)-[1,1′-biphenyl]-3-yl)-2-(p-tolyl)acetamide] | 63.1 |
| CC(=O)N1CCC(CC(=O)Nc2cc(-c3ccccc3-c3nn[nH]n3)ccc2SC(C)(C)C)CC1 [Example 31, 2-(1-Acetylpiperidin-4-yl)-N-(4-(tert-butylthio)-2′-(2H-tetrazol-5-yl)-[1,1′-biphenyl]-3-yl)acetamide] | > 10000 |
| CC(C)(C)Sc1ccc(-c2ccccc2-c2nn[nH]n2)cc1NC(=O)CC1CCN(S(C)(=O)=O)CC1 [Example 32, N-(4-(tert-butylthio)-2′-(2H-tetrazol-5-yl)-[1,1′-biphenyl]-3-yl)-2-(1-(methylsulfonyl)piperidin-4-yl)acetamide] | > 10000 |
| CC(C)(C)Sc1ccc(-c2ccccc2-c2nn[nH]n2)cc1NC(=O)CC1CCNCC1 [Example 30, N-(4-(tert-butylthio)-2′-(2H-tetrazol-5-yl)-[1,1′-biphenyl]-3-yl)-2-(piperidin-4-yl)acetamide Hydrochloride] | > 10000 |
| CC(CC(=O)O)c1ccc(SC(C)(C)C)c(Nc2nc(Cl)ns2)c1 (stereo not drawn) [Example 45, 3-(4-(tert-Butylthio)-3-((3-chloro-1,2,4-thiadiazol-5-yl)amino)phenyl)butanoic Acid] | 2510 |
| CC(C)(C)Sc1ccc(-c2ccccc2-c2nn[nH]n2)cc1NC(=O)Cc1ccc(F)cc1 [Example 24, N-(4-(tert-butylthio)-2′-(2H-tetrazol-5-yl)-[1,1′-biphenyl]-3-yl)-2-(4-fluorophenyl)acetamide] | 398 |
| COCn1nnc(-c2ccccc2-c2ccc(SC(C)(C)C)c(NC(=O)Cc3ccc(C)cc3)c2)n1 [Example 59, N-(4-(tert-butylthio)-2′-(2-(methoxymethyl)-2H-tetrazol-5-yl)-[1,1′-biphenyl]-3-yl)-2-(p-tolyl)acetamide] | 398 |
| CC(C)(C)Sc1ccc(-c2ccccc2-c2nn[nH]n2)cc1NC(=O)Cc1ccncc1 [Example 6, N-(4-(tert-butylthio)-2′-(2H-tetrazol-5-yl)-[1,1′-biphenyl]-3-yl)-2-(pyridin-4-yl)acetamide] | 6310 |
| Cc1ccc(CC(=O)Nc2cc(-c3ccccc3-c3nnnn3COP(=O)(OC(C)(C)C)OC(C)(C)C)ccc2SC(C)(C)C)cc1 [Example 50, di-tert-butyl ((5-(4′-(tert-butylthio)-3′-(2-(p-tolyl)acetamido)-[1,1′-biphenyl]-2-yl)-1H-tetrazol-1-yl)methyl) phosphate] | 126 |
